Experimental data as given in patent US4278686A, “Carbapenum derivatives, a process for their preparation and their use in pharmaceutical compositions and intermediates” (Beecham Group Limited, priority 1978, dated 1981).
Read-outs that look alike come from different tables or passages of the source.

Key:
Format in all cases: cell-based
[1] = tested on: Streptococcus faecalis I; experiment: minimum inhibitory concentration, Streptococcus faecalis I (DST agar+10% horse blood); conditions: Enterococcus faecalis
Protocol: (§1) The minimum inhibitory concentrations (MIC) of the compound (e54) was determined using a standard DST agar+10% horse blood substrate. The tests used an undiluted inoculum of bacteria. […]
(§2) The minimum inhibitory concentrations (MIC) of this compound was determined using a standard DST agar+10% horse blood substrate.
(§3) The minimum inhibitory concentrations (MIC) of this compound was determined using a standard DST agar+10% horse blood substrate. The tests used an undiluted inoculum of bacteria.

[2] = tested on: Proteus mirabilis C977; experiment: minimum inhibitory concentration, Proteus mirabilis C977 (DST agar+10% horse blood)
Protocol: as §1, §2, §3

[3] = tested on: Staphylococcus aureus 1517; experiment: minimum inhibitory concentration, Staphylococcus aureus 1517 (DST agar+10% horse blood)
Protocol: as §1, §2, §3

[4] = tested on: Staphylococcus aureus Oxford; experiment: minimum inhibitory concentration, Staphylococcus aureus Oxford (DST agar+10% horse blood)
Protocol: as §1, §2, §3

[5] = tested on: Citrobacter freundii E8; experiment: minimum inhibitory concentration, Citrobacter freundii E8 (DST agar+10% horse blood)
Protocol: as §1, §2, §3

[6] = tested on: Staphylococcus aureus Russell; experiment: minimum inhibitory concentration, Staphylococcus aureus Russell (DST agar+10% horse blood)
Protocol: as §1, §2, §3

[7] = tested on: Escherichia coli 0111; experiment: minimum inhibitory concentration, Escherichia coli 0111 (DST agar+10% horse blood)
Protocol: as §1, §2, §3

[8] = tested on: Salmonella typhimurium CT10; experiment: minimum inhibitory concentration, Salmonella typhimurium CT10 (DST agar+10% horse blood); conditions: Salmonella enterica
Protocol: as §1, §2, §3

[9] = tested on: Klebsiella aerogenes A; experiment: minimum inhibitory concentration, Klebsiella aerogenes A (DST agar+10% horse blood)
Protocol: as §1, §2, §3

[10] = tested on: Streptococcus pyogenes CN10; experiment: minimum inhibitory concentration, Streptococcus pyogenes CN10 (DST agar+10% horse blood)
Protocol: as §1, §2, §3

[11] = tested on: Proteus vulgaris WO91; experiment: minimum inhibitory concentration, Proteus vulgaris WO91 (DST agar+10% horse blood)
Protocol: as §1, §2, §3

[12] = tested on: Enterobacter cloacae N1; experiment: minimum inhibitory concentration, Enterobacter cloacae N1 (DST agar+10% horse blood)
Protocol: as §1, §2, §3

[13] = tested on: Proteus rettgeri WM16; experiment: minimum inhibitory concentration, Proteus rettgeri WM16 (DST agar+10% horse blood); conditions: Providencia rettgeri
Protocol: as §1, §2, §3

[14] = tested on: Escherichia coli JT 39; experiment: minimum inhibitory concentration, Escherichia coli JT 39 (DST agar+10% horse blood)
Protocol: as §1, §2, §3

[15] = tested on: E. coli ESS; experiment: minimum inhibitory concentration, E. coli ESS (DST agar+10% horse blood); conditions: Escherichia coli
Protocol: as §1, §2, §3

[16] = tested on: Serratia marcescens US20; experiment: minimum inhibitory concentration, Serratia marcescens US20 (DST agar+10% horse blood)
Protocol: as §1, §2, §3

[17] = tested on: Bacillus subtilis A; experiment: minimum inhibitory concentration, Bacillus subtilis A (DST agar+10% horse blood); conditions: undiluted inoculum
Protocol: as §1, §2, §3

[18] = tested on: Pseudomonas aeruginosa A; experiment: minimum inhibitory concentration, Pseudomonas aeruginosa A (DST agar+10% horse blood)
Protocol: as §1, §2, §3

[19] = tested on: Proteus morganii I580; experiment: minimum inhibitory concentration, Proteus morganii I580 (DST agar+10% horse blood); conditions: Morganella morganii, Proteus morganii I580, DST agar+10% horse blood, read-out: MIC
Protocol: The minimum inhibitory concentrations (MIC) of the compound (e54) was determined using a standard DST agar+10% horse blood substrate. The tests used an undiluted inoculum of bacteria.
Sodium (5R,6S)-3-(2-acetamidoethylthio)--6-ethyl-7-oxo-1-azabicyclo[3.2.0]-hept-2-ene-2-carboxylate [drawing 60] p-Methoxycarbonylbenzyl (5R,6S)-3-(2-acetamidoethylthio)-6-ethyl-7-oxo-1-azabicyclo[3.2.0]hept-2-ene-2-carboxylate (e58) (18 mg) was added to the cathodic compartment of an H-type divided two-compartment electrochemical cell, with a mercury cathode and a platinum anode. The cell contained degassed 0.1 M n-Bu4 NI in dimethylformamide as electrolyte. The volume of the catholyte was about 15 ml [glacial acetic acid (about 10 mg) added] and the volume of the anolyte was about 8 ml. A potentiostat was employed to fix the potential of the cathode at -1.9 V with respect to the standard calomel electrode, and the initial current, about 56 mA, fell to about 15 mA after about 15 min. The catholyte was removed from the cell and the solvent was evaporated in vacuo. The residue was taken up in CH2 Cl2 (10 ml) and washed with water (10 ml). The aqueous phase was separated and washed with CH2 Cl2. The aqueous phase, containing the tetrabutylammonium salt corresponding to (e63) was passed through an Amberlite IR 120 (Na form) column (17×1 cm) and the eluate was reduced to low volume by evaporation in vacuo. The residue was passed through a Biogel P-2 column, to yield fractions containing sodium (5R,6S)-3-(2-acetamidoethylthio)-6-ethyl-7-oxo-1-azabicyclo[3.2.0]hept-2-ene-2-carboxylate (e63) having λmax 298 nm. The minimum inhibitory concentrations (MIC) of this compound was determined using a standard DST agar+10% horse blood substrate.
Sodium (5R,6S)-3-[(E)-2-acetamidoethenylthio]-6-ethyl-7-oxo-1-azabicyclo[3.2.0]hept-2-ene-2-carboxylate [drawing 68] p-Methoxycarbonylbenzyl (5R,6S)-3-[(E)-2-acetamidoethenylthio]-6-ethyl-7-oxo-1-azabicyclo[3.2.0]hept-2-ene-2-carboxylate (e72) (64 mg) in solution in 0.1 M (n-C4 H9)4 NBF4 in dry DMF was added to the cathodic compartment of a divided cylindrical electrochemical cell, with a mercury cathode and platinum anode. The volume of electrolyte in the cathodic compartment was about 25 ml, and in the anodic compartment about 10 ml. Acetic acid (12 mg) was added to the cathodic compartment and ethanol (250 mg) was added to the anodic compartment. The cell was degassed by passing argon for 30 min. The potentiostat was engaged to maintain the potential of the cathode at -1.9 V w.r.t. standard calomel electrode. The initial current (40 mA) fell to about 5 mA after 25 min. The solvent was removed from the catholyte by evaporation in vacuo and the residual oil was taken up in CH2 Cl2 (20 ml) and extracted with water (15 ml) containing sodium tetrafluoroborate (100 mg). The aqueous extract was washed with CH2 Cl2 and then passed down an Amberlite 1R 120 column (1×20 cm) in the sodium form. The volume of the eluate was reduced to about 5 ml by evaporation in vacuo and loaded onto a Biogel P-2 column (18×3 cm). Elution with water yielded fractions containing sodium (5R,6S)-3-[(E)-2-acetamidoethenylthio]-6-ethyl-7-oxo-1-azabicyclo[3.2.0]hept-2-ene-2-carboxylate (e73) λmax 308 nm. The minimum inhibitory concentrations (MIC) of this compound was determined using a standard DST agar+10% horse blood substrate.
Sodium (5R,6R)-3-[(E)-2-acetamidoethenylthio]-6-(1-benzylthioethyl)-7-oxo-1-azabicyclo[3.2.0]hept-2-ene-2-carboxylate [drawing 87] The least polar crystalline isomer of the ester (e93) (40 mg) obtained in Example 70 was added to a mixture of 5% Pd on C (60 mg) in 20% aqueous dioxan (5 ml) which had been prehydrogenated for 0.5 h. Hydrogenation was continued for 4 h and the mixture was filtered through Celite after adding NaHCO3 (7 mg) and water (10 ml). The solution was concentrated to a volume of about 10 ml and was then washed with ethyl acetate (3×30 ml). […]

[20] = tested on: Shigella sonnei MB 11967; experiment: minimum inhibitory concentration, Shigella sonnei MB 11967 (DST agar+10% horse blood)
Protocol: as §1, §2, §3

[21] = tested on: Streptococcus pneumoniae CN33; experiment: minimum inhibitory concentration, Streptococcus pneumoniae CN33 (DST agar+10% horse blood); conditions: undiluted inoculum
Protocol: as §1, §2, §3

[22] = Enterobacter cloacae N1, undiluted inoculum

| SMILES | MIC ([1]; undiluted inoculum) [µg/mL] | MIC ([2]; undiluted inoculum) [µg/mL] | MIC ([3]; undiluted inoculum) [µg/mL] | MIC ([4]; undiluted inoculum) [µg/mL] | MIC ([5]; undiluted inoculum) [µg/mL] | MIC ([6]; undiluted inoculum) [µg/mL] | MIC ([7]; undiluted inoculum) [µg/mL] | MIC ([8]; undiluted inoculum) [µg/mL] | MIC ([9]; undiluted inoculum) [µg/mL] | MIC ([10]; undiluted inoculum) [µg/mL] | MIC ([11]; undiluted inoculum) [µg/mL] | MIC [12, 22] [µg/mL] | MIC ([13]; undiluted inoculum) [µg/mL] | MIC ([14]; JT39, undiluted inoculum) [µg/mL] | MIC ([15]; undiluted inoculum) [µg/mL] | MIC ([16]; undiluted inoculum) [µg/mL] | MIC [17] [µg/mL] | MIC ([18]; undiluted inoculum) [µg/mL] | MIC ([19]; undiluted inoculum) [µg/mL] | MIC ([20]; MB11967, undiluted inoculum) [µg/mL] | also measured |
| --- | --- | --- | --- | --- | --- | --- | --- | --- | --- | --- | --- | --- | --- | --- | --- | --- | --- | --- | --- | --- | --- |
| CSC(C)[C@H]1C(=O)N2C(C(=O)[O-])=C(S/C=C/NC(C)=O)C[C@H]12.[Na+] (single isomer, unassigned) [e101] | 12.5 | 12.5 | 12.5 | 0.5 | 5 | 0.5 | 2.5 | 1.2 | 2.5 | 0.2 | 5 | 2.5 | 5 | 2.5 | 1.2 | 5 | 1.2 | 50 | 12.5 | 1.2 | MIC [21]: 0.1 µg/mL |
| CC[C@H]1C(=O)N2C(C(=O)[O-])=C(S/C=C/NC(C)=O)C[C@H]12.[Na+] [e54, sodium (5R,6R)-3-[(E)-2-acetamidoethenylthio]-6-ethyl-7-oxo-1-azabicyclo[3.2.0]hept-2-ene-2-carboxylate] | 25 | 25 | 12.5 | 0.4 | 12.5 | 0.4 | 3.1 | 3.1 | 3.1 | 0.2 | 25 | 25 | 25 | 3.1 | 0.4 | 12.5 | 0.8 | > 50 | 25 | 3.1 | MIC [21]: 0.1 µg/mL |
| CC[C@@H]1C(=O)N2C(C(=O)[O-])=C(SCCNC(C)=O)C[C@H]12.[Na+] [e63, sodium (5R,6S)-3-(2-acetamidoethylthio)-6-ethyl-7-oxo-1-azabicyclo[3.2.0]hept-2-ene-2-carboxylate] | – | – | – | – | – | – | – | – | – | – | – | – | – | – | – | – | – | – | – | – | MIC [1]: 40 µg/mL; MIC [2]: 10 µg/mL; MIC [3]: 10 µg/mL; MIC [4]: 0.6 µg/mL; MIC [5]: 2.5 µg/mL; MIC [6]: 0.6 µg/mL; MIC [7]: 2.5 µg/mL; MIC [8]: 2.5 µg/mL; MIC [9]: 1.2 µg/mL; MIC [10]: 0.1 µg/mL; MIC [11]: 5 µg/mL; MIC ([12]; Enterobacter cloacae, Enterobactor cloacae N1): 20 µg/mL; MIC [13]: 10 µg/mL; MIC ([14]; JT39): 10 µg/mL; MIC [15]: 1.2 µg/mL; MIC [16]: 10 µg/mL; MIC [18]: > 40 µg/mL; MIC [19]: 40 µg/mL; MIC ([20]; MB11967): 2.5 µg/mL |
